Here are results for 22 compounds from patent US8716326B2, “Isoindolinone derivatives, preparation method thereof and a pharmaceutical composition comprising same” (Korea Research Institute of Chemical Technology, priority 2009, dated 2014).

Each structure is given as a SMILES string.

The test system of this assay is Runx2. The experiment in a line: Runx2 activity, 6xOSE2-Luc luciferase reporter in transfected C2C12 cells. The assay is classed as cell-based, Mouse. The settings on record: Mus musculus, 24 hrs, read-out: luciferase activity relative to control set as 1. As for the experimental part:
Mouse premyoblast cell (C2C12 cell) was transfected using receptor vector 6xOSE2-Luc in order to investigate the activity of the amide compound of the present invention on Runx2.
Specifically, the receptor vector 6xOSE2-Luc was prepared by inserting an artificial promoter linked by six tandem copies of the OSE2 (osteoblast specific element-2) into vector pGL3 (Promega; Madison, Wis., U.S.A.), and then, cloned into the C2C12 cell to be transfected (Kim et al., Journal of Cellular Biochemistry, 91: 1239-1247, 2004). The OSE2 is the binding site of Runx2 in the promoter of osteocalcin which is a bone marker.
C2C12 cells (5,000 cells/well) were plated onto 96-well plates using 10% FBS (fetal bovine serum; Hyclone)-containing DMEM (Dulbecco's Modified Eagle's Medium), the medium was replaced with 5% FBS-containing DMEM after 24 hrs, and treated with each of the amide compounds obtained in Examples 1 to 94 at various concentrations of 2.5 μM, 5.0 μM, 10 μM, and 20 μM. As a control, dimethyl sulfoxide (DMSO) vehicle was applied to the cell in an amount same as that of the amide compound. After 24 hrs, the luciferase activity in the cell lysate was measured by using Dual-Luciferase Reporter Assay System (Promega). The luciferase activity of the amide compound of the present invention was calculated as a value relative to that observed for the control which was set as 1.
In general terms: Reporter assays use an easily measured gene product as a stand-in for the process of interest.

Take `Nc1ccccc1NC(=O)c1ccc(CN2Cc3c(cccc3-c3ccc4c(c3)OCO4)C2=O)cc1` [Example 19, N-(2-aminophenyl)-4-((4-(benzo[d][1,3]dioxol-6-yl)-1-oxoisoindolin-2-yl)methyl)benzamide]: the fold induction at 2.5 µM turned out to be 10.8, the fold induction at 5 µM turned out to be 9.9, the fold induction at 10 µM was 11.7 and the fold induction at 20 µM worked out at 14.
Regarding `N#Cc1ccc(-c2cccc3c2CN(Cc2ccc(C(=O)Nc4ccccc4N)cc2)C3=O)cc1` [Example 20, N-(2-aminophenyl)-4-[4-(4-cyanophenyl)-1-oxo-2,3-dihydro-1H-isoindol-2-yl]methylbenzamide], the fold induction at 2.5 µM stood at 16.2, the fold induction at 5 µM came out at 19.4, the fold induction at 10 µM is 19.3 and the fold induction at 20 µM was 16.8.
For `Nc1ccccc1NC(=O)c1ccc(CN2Cc3c(cccc3-c3ccc4ccccc4c3)C2=O)cc1` [Example 21, N-(2-aminophenyl)-4-((4-(naphthalen-2-yl)-1-oxoisoindolin-2-yl)methyl)benzamide], in that order: 6.4, 8.7, 11.6 and 11.7.
`COc1ccc(-c2cccc3c2CN(Cc2ccc(C(=O)Nc4ccccc4N)cc2)C3=O)cn1` [Example 22, N-(2-aminophenyl)-4-((4-(6-methoxypyridin-3-yl)-1-oxoisoindolin-2-yl)methyl)benzamide]: the fold induction at 2.5 µM stood at 12.4, the fold induction at 5 µM came out at 9.5, the fold induction at 10 µM was found to be 10.2 and the fold induction at 20 µM stood at 10.3.
For the compound `CC(=O)Nc1cccc(-c2cccc3c2CN(Cc2ccc(C(=O)Nc4ccccc4N)cc2)C3=O)c1` [Example 23, N-(2-aminophenyl)-4-[4-(3-acetamidophenyl)-1-oxo-2,3-dihydro-1H-isoindol-2-yl]methylbenzamide], the fold induction at 2.5 µM stood at 3.9, the fold induction at 5 µM turned out to be 5.1, the fold induction at 10 µM was 18.1 and the fold induction at 20 µM was determined as 33.2.
Take `COc1ccc(-c2cccc3c2CN(Cc2ccc(C(=O)Nc4ccccc4N)cc2)C3=O)cc1F` [Example 24, N-(2-aminophenyl)-4-((4-(3-fluoro-4-methoxyphenyl)-1-oxoisoindolin-2-yl)methyl)benzamide]: the fold induction at 2.5 µM amounted to 11.8, the fold induction at 5 µM turned out to be 17.3, the fold induction at 10 µM amounted to 19.6 and the fold induction at 20 µM is 21.2.
Regarding `Nc1ccccc1NC(=O)c1ccc(CN2Cc3c(cccc3-c3ccc(-c4ccccc4)cc3)C2=O)cc1` [Example 25, N-(2-aminophenyl)-4-[1-oxo-4-(4-phenylphenyl)-2,3-dihydro-1H-isoindol-2-yl]methylbenzamide], the fold induction at 2.5 µM is 6.8, the fold induction at 5 µM was found to be 11.3, the fold induction at 10 µM is 17.9 and the fold induction at 20 µM stood at 19.7.
As for `NC(=O)c1cccc(-c2cccc3c2CN(Cc2ccc(C(=O)Nc4ccccc4N)cc2)C3=O)c1` [Example 26, 3-[2-(4-[(2-aminophenyl)carbamoyl]phenylmethyl)-1-oxo-2,3-dihydro-1H-isoindol-4-yl]benzamide], the fold induction at 2.5 µM stood at 1.6, the fold induction at 5 µM turned out to be 2.3, the fold induction at 10 µM amounted to 4.4 and the fold induction at 20 µM turned out to be 18.4.
In the case of `Cc1ccc(-c2cccc3c2CN(Cc2ccc(C(=O)Nc4ccccc4N)cc2)C3=O)cc1F` [Example 27, N-(2-aminophenyl)-4-((4-(3-fluoro-4-methylphenyl)-1-oxoisoindolin-2-yl)methyl)benzamide], the fold induction at 2.5 µM was 9.9, the fold induction at 5 µM worked out at 17.5, the fold induction at 10 µM was determined as 22.5 and the fold induction at 20 µM is 20.3.
Take `CC(C)(C)c1ccc(-c2cccc3c2CN(Cc2ccc(C(=O)Nc4ccccc4N)cc2)C3=O)cc1` [Example 28, 4-((4-(4-tert-butylphenyl)-1-oxoisoindolin-2-yl)methyl)-N-(2-aminophenyl)benzamide]: the fold induction at 2.5 µM amounted to 4.6, the fold induction at 5 µM was 7.7, the fold induction at 10 µM turned out to be 14.3 and the fold induction at 20 µM came to 23.7.
Regarding `Nc1ccccc1NC(=O)c1ccc(CN2Cc3c(cccc3-c3ccc(Oc4ccccc4)cc3)C2=O)cc1` [Example 29, N-(2-aminophenyl)-4-((1-oxo-4-(4-phenoxyphenyl)isoindolin-2-yl)methyl)benzamide], the fold induction at 2.5 µM is 3.4, the fold induction at 5 µM is 5.6, the fold induction at 10 µM came to 10.5 and the fold induction at 20 µM amounted to 10.
As to `Nc1ccccc1NC(=O)c1ccc(CN2Cc3c(cccc3-c3ccc(F)cc3)C2=O)cc1` [Example 30, N-(2-aminophenyl)-4-((4-(4-fluorophenyl)-1-oxoisoindolin-2-yl)methyl)benzamide], the fold induction at 2.5 µM was determined as 13.5, the fold induction at 5 µM came out at 20.5, the fold induction at 10 µM was found to be 28.8 and the fold induction at 20 µM is 30.4.
In the case of `COc1cc2c(c(-c3ccccc3)c1OC)CN(CCCCCC(=O)Nc1ccccc1N)C2=O` [Example 31, N-(2-aminophenyl)-6-(5,6-dimethoxy-1-oxo-4-phenylisoindolin-2-yl)hexanamide], the fold induction at 2.5 µM was found to be 12.2, the fold induction at 5 µM stood at 21.2, the fold induction at 10 µM worked out at 26.2 and the fold induction at 20 µM amounted to 29.3.
On the same counts, the results for `COc1cc2c(c(-c3cc(C)cc(C)c3)c1OC)CN(CCCCCC(=O)Nc1ccccc1N)C2=O` [Example 32, N-(2-aminophenyl)-6-(5,6-dimethoxy-4-(3,5-dimethylphenyl)-1-oxoisoindolin-2-yl)hexanamide] are 4.4, 9.2, 18.5 and 23.8.
Regarding `COc1cc2c(c(-c3cccnc3)c1OC)CN(CCCCCC(=O)Nc1ccccc1N)C2=O` [Example 33, N-(2-aminophenyl)-6-(5,6-dimethoxy-1-oxo-4-(pyridin-3-yl)isoindolin-2-yl)hexanamide], the fold induction at 2.5 µM was 1.8, the fold induction at 5 µM is 3.4, the fold induction at 10 µM was determined as 10 and the fold induction at 20 µM was found to be 29.
As to `COc1cc2c(c(-c3cc(F)cc(F)c3)c1OC)CN(CCCCCC(=O)Nc1ccccc1N)C2=O` [Example 34, N-(2-aminophenyl)-6-(4-(3,5-difluorophenyl)-5,6-dimethoxy-1-oxoisoindolin-2-yl)hexanamide], the fold induction at 2.5 µM worked out at 3.7, the fold induction at 5 µM came out at 7.4, the fold induction at 10 µM was determined as 18 and the fold induction at 20 µM turned out to be 23.
In the case of `COc1cc2c(c(-c3ccc(C(F)(F)F)cc3)c1OC)CN(CCCCCC(=O)Nc1ccccc1N)C2=O` [Example 35, N-(2-aminophenyl)-6-(4-(4-(trifluoromethyl)phenyl)-5,6-dimethoxy-1-oxoisoindolin-2-yl)hexanamide], the fold induction at 2.5 µM turned out to be 2.9, the fold induction at 5 µM turned out to be 6.7, the fold induction at 10 µM was determined as 14.2 and the fold induction at 20 µM was 22.3.
Turning to `Nc1ccccc1NC(=O)CCCCCN1Cc2c(Br)cccc2C1=O` [Example 36, N-(2-aminophenyl)-6-(4-bromo-1-oxoisoindolin-2-yl)hexanamide], the fold induction at 2.5 µM was 2.1, the fold induction at 5 µM was 3, the fold induction at 10 µM was found to be 8 and the fold induction at 20 µM is 13.
For `Nc1ccccc1NC(=O)CCCCCN1Cc2c(cccc2-c2ccccc2)C1=O` [Example 37, N-(2-aminophenyl)-6-(1-oxo-4-phenylisoindolin-2-yl)hexanamide], in that order: 1.6, 2.6, 6.8 and 12.5.
With `Nc1ccccc1NC(=O)CCCCCN1Cc2c(cccc2-c2cccnc2)C1=O` [Example 38, N-(2-aminophenyl)-6-(1-oxo-4-(pyridin-3-yl)isoindolin-2-yl)hexanamide], the fold induction at 2.5 µM stood at 3, the fold induction at 5 µM was 8.2, the fold induction at 10 µM stood at 23 and the fold induction at 20 µM was found to be 43.3.
As for `COc1ccc(-c2cccc3c2CN(CCCCCC(=O)NO)C3=O)c(OC)c1` [Example 39, N-hydroxy-6-(4-(2,4-dimethoxyphenyl)-1-oxoisoindolin-2-yl)hexanamide], the fold induction at 2.5 µM came out at 1.4, the fold induction at 5 µM came to 2.1, the fold induction at 10 µM came to 5.3 and the fold induction at 20 µM was 25.6.
For `COc1ccc(-c2cccc3c2CN(CCCCCC(=O)NO)C3=O)cc1OC` [Example 40, N-hydroxy-6-(4-(3,4-dimethoxyphenyl)-1-oxoisoindolin-2-yl)hexanamide], in that order: 1.1, 1.1, 1.7 and 1.6.
